≈ marks a conversion by molar mass, not a printed value. Calls of active or inactive are those of the source. No cut-off for these calls is given here.
How the values were obtained:
[1] = tested on: Staphylococcus saprophyticus; experiment: Antibacterial activity against Staphylococcus saprophyticus ATCC 49453 assessed as inhibition of bacterial growth; type: functional
[2] = tested on: Staphylococcus aureus; experiment: Antibacterial activity against Staphylococcus aureus 4299 assessed as inhibition of bacterial growth; type: functional
[3] = tested on: Staphylococcus aureus; experiment: Antibacterial activity against methicilin-resistant Staphylococcus aureus 1003 assessed as inhibition of bacterial growth; type: functional
[4] = tested on: Bacillus cereus; experiment: Antibacterial activity against Bacillus cereus ATCC 11788 assessed as inhibition of bacterial growth; type: functional
[5] = tested on: Cell membrane; experiment: Induction of cell membrane […] in methicilin-resistant Staphylococcus aureus 21455 assessed as increase in fluorescence intensity at 8 times MIC by SYTOX green dye based fluorescence analysis; type: cell membranes
[6] = tested on: Staphylococcus aureus; experiment: Antibacterial activity against methicilin-resistant Staphylococcus aureus ATCC 700699 assessed as inhibition of bacterial growth; type: functional
[7] = tested on: Staphylococcus epidermidis; experiment: Antibacterial activity against Staphylococcus epidermidis 12228 assessed as inhibition of bacterial growth; type: functional
[8] = tested on: Cell membrane; experiment: Induction of cell membrane […] in methicilin-resistant Staphylococcus aureus 21455 assessed as increase in fluorescence intensity at 16 times MIC by SYTOX green dye based fluorescence analysis; type: cell membranes
[9] = Hemolytic activity in rabbit erythrocytes assessed as hemolysis at 64 microg/ml relative to control; type: toxicity, cell-based, Oryctolagus cuniculus, Erythrocyte; details: at 64 µg/mL, read-out: Activity
[10] = Hemolytic activity in rabbit erythrocytes assessed as hemolysis at 256 microg/ml relative to control; type: toxicity, cell-based, Oryctolagus cuniculus, Erythrocyte; details: at 256 µg/mL, read-out: Activity
[11] = tested on: Staphylococcus aureus; experiment: Bactericidal activity against methicilin-resistant Staphylococcus aureus 21455 assessed as reduction in bacterial colony forming unit at 16 times MIC observed after 2 hrs by time-kill kinetic assay; type: functional
[12] = tested on: Staphylococcus saprophyticus; experiment: Antibacterial activity against Staphylococcus saprophyticus ATCC 49907 assessed as inhibition of bacterial growth; type: functional
[13] = tested on: Enterococcus faecium; experiment: Antibacterial activity against Vancomycin-resistant Enterococcus […] ATCC 700802 assessed as inhibition of bacterial growth; type: functional
[14] = tested on: Staphylococcus aureus; experiment: Antibacterial activity against methicilin-resistant Staphylococcus aureus 21455 assessed as inhibition of bacterial growth; type: functional
[15] = tested on: Staphylococcus aureus; experiment: Antibacterial activity against Staphylococcus aureus 29213 assessed as inhibition of bacterial growth; type: functional
[16] = tested on: Cell membrane; experiment: Induction of cytoplasmic membrane depolarization in methicilin-resistant Staphylococcus aureus 21455 at 8 times MIC by DiSC3(5) dye-based fluorescence assay
[17] = tested on: Enterococcus faecium; experiment: Antibacterial activity against Vancomycin-resistant Enterococcus […] ATCC 29212 assessed as inhibition of bacterial growth; type: functional; details: Enterococcus faecalis
[18] = tested on: Staphylococcus saprophyticus; experiment: Antibacterial activity against Staphylococcus saprophyticus ATCC BAA 750 assessed as inhibition of bacterial growth; type: functional
[19] = tested on: Bacillus subtilis; experiment: Antibacterial activity against Bacillus subtilis ATCC 6633 assessed as inhibition of bacterial growth; type: functional
[20] = tested on: Cell membrane; experiment: Induction of cytoplasmic membrane depolarization in methicilin-resistant Staphylococcus aureus 21455 at 16 times MIC by DiSC3(5) dye-based fluorescence assay
[21] = tested on: Staphylococcus aureus; experiment: Antibacterial activity against methicilin-resistant Staphylococcus aureus 42412 assessed as inhibition of bacterial growth; type: functional
[22] = tested on: Staphylococcus aureus; experiment: Bactericidal activity against methicilin-resistant Staphylococcus aureus 21455 assessed as inhibition of bacterial growth by time-kill kinetic assay; type: functional, organism-based
[23] = tested on: Staphylococcus aureus; experiment: Bactericidal activity against methicilin-resistant Staphylococcus aureus 21455 assessed as reduction in bacterial viability at 2 times MIC observed after 4 hrs by time-kill kinetic assay relative to control; type: functional
[24] = tested on: Enterococcus faecium; experiment: Antibacterial activity against Vancomycin-resistant Enterococcus faecium 1014 assessed as inhibition of bacterial growth; type: functional
[25] = tested on: Staphylococcus saprophyticus; experiment: Antibacterial activity against Staphylococcus saprophyticus ATCC 15305 assessed as inhibition of bacterial growth; type: functional
[26] = tested on: Staphylococcus aureus; experiment: Bactericidal activity against methicilin-resistant Staphylococcus aureus 21455 assessed as inhibition of bacterial growth at >=8 times MIC by time-kill kinetic assay; type: functional, organism-based
[27] = tested on: Staphylococcus aureus; experiment: Bactericidal activity against methicilin-resistant Staphylococcus aureus 21455 assessed as reduction in bacterial colony forming unit at 16 times MIC observed after 8 hrs by time-kill kinetic assay; type: functional, organism-based
[28] = tested on: Staphylococcus aureus; experiment: Bactericidal activity against methicilin-resistant Staphylococcus aureus 21455 assessed as reduction in bacterial colony forming unit at 16 times MIC observed after 24 hrs by time-kill kinetic assay; type: functional, organism-based
[29] = tested on: Staphylococcus aureus; experiment: Bactericidal activity against methicilin-resistant Staphylococcus aureus 21455 assessed as reduction in bacterial growth by measuring minimum bactericidal concentration at 16 times MIC by time-kill kinetic assay; type: functional
[30] = Hemolytic activity in rabbit erythrocytes assessed as hemolysis at 512 microg/ml relative to control; type: toxicity, cell-based, Oryctolagus cuniculus, Erythrocyte; details: at 512 µg/mL, read-out: Activity
[31] = tested on: Staphylococcus epidermidis; experiment: Antibacterial activity against Staphylococcus epidermidis 1457 assessed as inhibition of biofilm formation at 10 ug/ml incubated for 5 hrs by confocal microscopic analysis; type: functional, organism-based; details: dose 10.0 µg/ml
[32] = tested on: Staphylococcus aureus; experiment: Antibacterial activity against Staphylococcus aureus 15981 assessed as inhibition of biofilm formation at 10 ug/ml incubated for 5 hrs by confocal microscopic analysis; type: functional, organism-based; details: dose 10.0 µg/ml

Row | SMILES | MIC [1] [µg/mL] | MIC [2] [µg/mL] | MIC [3] [µg/mL] | MIC [4] [µg/mL] | Activity [5] | MIC [6] [µg/mL] | MIC [7] [µg/mL] | Activity [8] | MIC [12] [µg/mL] | MIC [13] [µg/mL] | MIC [14] [µg/mL] | MIC [15] [µg/mL] | Activity [16] | MIC [17] [µg/mL] | MIC [18] [µg/mL] | MIC [19] [µg/mL] | Activity [20] | MIC [21] [µg/mL] | MIC [24] [µg/mL] | MIC [25] [µg/mL] | other results
1 | CC[C@H](C)[C@H](NC(=O)[C@@H](Cc1ccccc1)NC)C(=O)N[C@@H](CCCNC(=N)N)C(=O)N[C@H](CCCNC(=N)N)C(=O)N[C@@H](C(=O)N[C@H](C(=O)N[C@@H](CO)C(=O)N[C@H]1C(=O)N[C@@H](CCCNC(=N)N)C(=O)N[C@@H](C2CCCCC2)C(=O)N[C@@H]([C@@H](C)CC)C(=O)O[C@H]1C)[C@@H](C)CC)[C@@H](C)CC | 0.063 (≈ 0.0447 µM) | 1 (≈ 0.709 µM) | 1 (≈ 0.709 µM) | 0.5 (≈ 0.355 µM) | 65.5% | 1 (≈ 0.709 µM) | 0.063 (≈ 0.0447 µM) | 70.2% | 0.063 (≈ 0.0447 µM) | 4 (≈ 2.84 µM) | 2 (≈ 1.42 µM) | 0.5 (≈ 0.355 µM) | Active | 2 (≈ 1.42 µM) | < 0.063 | 0.063 (≈ 0.0447 µM) | Active | 1 (≈ 0.709 µM) | 2 (≈ 1.42 µM) | < 0.063 | hemolysis at 64 microg/ml [9]: 5.4%; hemolysis at 256 microg/ml [10]: 25%; Activity [11]: >=3 log10CFU; Activity [22]: Dose-Dependent Effect; Activity [23]: >=99.9%
2 | CC[C@H](C)[C@H](NC(=O)[C@@H](Cc1ccccc1)NC)C(=O)N[C@@H](CO)C(=O)N[C@H](CCC(N)=O)C(=O)N[C@@H](C(=O)N[C@H](C(=O)N[C@@H](CO)C(=O)N[C@H]1C(=O)N[C@@H](C)C(=O)N[C@@H](C2CCCCC2)C(=O)N[C@@H]([C@@H](C)CC)C(=O)O[C@H]1C)[C@@H](C)CC)[C@@H](C)CC | < 0.063 | 0.063 (≈ 0.0513 µM) | 0.063 (≈ 0.0513 µM) | 0.063 (≈ 0.0513 µM) | 8.8% | 0.125 (≈ 0.102 µM) | 0.063 (≈ 0.0513 µM) | 10.6% | 0.063 (≈ 0.0513 µM) | 0.063 (≈ 0.0513 µM) | 0.125 (≈ 0.102 µM) | 0.063 (≈ 0.0513 µM) | inactive | 0.125 (≈ 0.102 µM) | 0.063 (≈ 0.0513 µM) | 0.063 (≈ 0.0513 µM) | inactive | 0.063 (≈ 0.0513 µM) | 0.25 (≈ 0.204 µM) | < 0.063 | Activity [26]: Active; Activity [27]: Active; Activity [28]: Active; MBC [29]: 2 µg/mL (≈ 1.63 µM); hemolysis at 512 microg/ml [30]: ≤ 2%
3 | CC[C@H](C)[C@H](NC(=O)[C@@H](Cc1ccccc1)NC)C(=O)N[C@@H](CCCNC(=N)N)C(=O)N[C@H](CCCNC(=N)N)C(=O)N[C@@H](C(=O)N[C@H](C(=O)N[C@@H](CO)C(=O)N[C@H]1C(=O)N[C@@H](C)C(=O)N[C@@H](C2CCCCC2)C(=O)N[C@@H]([C@@H](C)CC)C(=O)O[C@H]1C)[C@@H](C)CC)[C@@H](C)CC | 0.125 (≈ 0.0944 µM) | 0.125 (≈ 0.0944 µM) | 0.5 (≈ 0.377 µM) | 2 (≈ 1.51 µM) | Active | 0.25 (≈ 0.189 µM) | 0.063 (≈ 0.0476 µM) | Active | 0.063 (≈ 0.0476 µM) | 2 (≈ 1.51 µM) | 0.25 (≈ 0.189 µM) | 0.063 (≈ 0.0476 µM) | Active | 2 (≈ 1.51 µM) | < 0.063 | 0.063 (≈ 0.0476 µM) | Active | 0.063 (≈ 0.0476 µM) | 1 (≈ 0.755 µM) | < 0.063 | Activity [31]: Active; hemolysis at 64 microg/ml [9]: 3.7%; hemolysis at 256 microg/ml [10]: 18%; Activity [11]: >=3 log10CFU; Activity [22]: Dose-Dependent Effect; Activity [32]: Active; Activity [23]: >=99.9%
